Experiments:
[1] = system: retinal ganglion cells (RGCs); conditions: cited from earlier work
[2] = system: Tg-AD mice (APPK595N, M596L+PS1ΔE9); assay: Cop-1 vaccination of Tg-AD mice: neurogenesis in hippocampal dentate gyrus (BrdU, NeuN, DCX); assay type: in vivo, mouse
Description: For BrdU staining, sections were washed with PBS and incubated in 2N HCl at 37° C. for 30 min. Sections were blocked for 1 h with blocking solution [PBS containing 20% normal horse serum and 0.1% Triton X-100, or PBS containing mouse immunoglobulin blocking reagent obtained from Vector Laboratories (Burlingame, Calif.)].
For immunohistochemistry, tissue sections were treated with a permeabilization/blocking solution containing 10% FCS, 2% bovine serum albumin, 1% glycine, and 0.05% Triton X-100 (Sigma-Aldrich, St. Louis). Tissue sections were stained overnight at 4° C. with specified combinations of the following primary antibodies: rat anti-BrdU (1:200; Oxford Biotechnology, Kidlington, Oxfordshire, UK), goat anti-doublecortin (anti-DCX) (1:400; Santa Cruz Biotechnology, Santa Cruz, Calif.), and mouse anti-neuronal nuclear protein (anti-NeuN) (1:200; Chemicon). […] Expression of IGF-I was detected by goat anti-IGF-I Abs (1:20; R&D Systems). Expression of TNF-α was detected by goat anti-TNF-α Abs (1:100; R&D Systems). T cells were detected with anti-CD3 polyclonal Abs (rabbit, 1:100; DakoCytomation, CA). […]
For in-vivo experiments, the numbers of Aβ plaques and CD11b^+ microglia in the hippocampus were counted at 300-μm intervals in 6-8 coronal sections (30 μm) from each mouse. Neurogenesis in the dentate gyrus was evaluated by counting of pre-mature neurons (DCX^+), proliferating cells (BrdU^+), and newly formed mature neurons (BrdU^+/NeuN^+) in six coronal sections (370 μm apart) per mouse brain. To obtain an estimate of the total number of labeled cells per dentate gyrus, the total number of cells counted in the selected coronal sections from each brain was multiplied by the volume index (the ratio between the volume of the dentate gyrus and the total combined volume of the selected sections). […] Quantification of CD3^+, CD11b^+ and CD11c^+ cells were analyzed from 30-50 Aβ-plaques of each mouse tested in this study. […]

[3] = system: Tg-AD mice (APPK595N, M596L+PS1ΔE9); assay: Cop-1 vaccination of Tg-AD mice: Aβ plaques, microglial phenotype and T cells in hippocampus (immunohistochemistry); assay type: in vivo, mouse
Description: For immunohistochemistry, tissue sections were treated with a permeabilization/blocking solution containing 10% FCS, 2% bovine serum albumin, 1% glycine, and 0.05% Triton X-100 (Sigma-Aldrich, St. Louis). Tissue sections were stained overnight at 4° C. with specified combinations of the following primary antibodies: rat anti-BrdU (1:200; Oxford Biotechnology, Kidlington, Oxfordshire, UK), goat anti-doublecortin (anti-DCX) (1:400; Santa Cruz Biotechnology, Santa Cruz, Calif.), and mouse anti-neuronal nuclear protein (anti-NeuN) (1:200; Chemicon). Secondary antibodies were FITC-conjugated donkey anti-goat, Cy-3-conjugated donkey anti-mouse, and Cy-3- or Cy-5-conjugated donkey anti-rat (1:200; Jackson ImmunoResearch, West Grove, Pa.). CD11b (MAC1; 1:50; BD—Pharmingen) or FITC-conjugated 113-4 was used for labeling of microglia. Anti-MHC-II Abs (rat, clone IBL-5/22; 1:50) was used to detect expression of cell-surface MHC-II proteins. To detect expression of CD11c hamster anti-CD11c (1:100; eBioscience, San Diego, Calif.) was used. Anti-Aβ (human amino-acid residues 1-17) (mouse, clone 6E10; Chemicon) was used to detect expression of human Aβ. Expression of IGF-I was detected by goat anti-IGF-I Abs (1:20; R&D Systems). Expression of TNF-α was detected by goat anti-TNF-α Abs (1:100; R&D Systems). T cells were detected with anti-CD3 polyclonal Abs (rabbit, 1:100; DakoCytomation, CA). Propidium iodide (1 μg/ml; Molecular Probes, Invitrogen, Carlsbad, Calif.), was used for nuclear staining.
Nineteen adult double-transgenic APPK595N, M596L+PS1ΔE9 mice of the B6C3-Tg (APPswe, PSEN1dE9) 85 Dbo/J strain (Borchelt et al., 1997) were purchased from The Jackson Laboratory (Bar Harbor, Me.) and were bred and maintained in the Animal Breeding Center of The Weizmann Institute of Science. All animals were handled according to the regulations formulated by the Weizmann Institute's Animal Care and Use Committee, and all experiments and procedures were approved by the Weizmann Institute's Animal Care and Use Committee.
(§1) Each mouse was subcutaneously injected five times with a total of 100 μg of high-molecular-weight (TV-5010 DS, from batch no. 486220205; Teva Pharmaceutical Industries, Petach Tikva, Israel) emulsified in 200 μl PBS, from experimental day 0 until day 24, twice during the first week and once a week thereafter.
For in-vivo experiments, the numbers of Aβ plaques and CD11b^+ microglia in the hippocampus were counted at 300-μm intervals in 6-8 coronal sections (30 μm) from each mouse. Neurogenesis in the dentate gyrus was evaluated by counting of pre-mature neurons (DCX^+), proliferating cells (BrdU^+), and newly formed mature neurons (BrdU^+/NeuN^+) in six coronal sections (370 μm apart) per mouse brain. To obtain an estimate of the total number of labeled cells per dentate gyrus, the total number of cells counted in the selected coronal sections from each brain was multiplied by the volume index (the ratio between the volume of the dentate gyrus and the total combined volume of the selected sections). Specificity of BrdU+/NeuN+ co-expression was assayed using the confocal microscope (LSM 510) in optical sections at 1-μm intervals. Quantification of CD3^+, CD11b^+ and CD11c^+ cells were analyzed from 30-50 Aβ-plaques of each mouse tested in this study. Cell counts, numbers of Aβ plaques, plaque areas, and intensity of NeuN staining per unit area in the dentate gyrus were evaluated automatically using Image-Pro Plus 4.5 software (Media Cybernetics, Carlsbad, Calif.).
We verified the presence of both transgenes in each mouse by PCR amplification of genomic DNA. Tg-AD mice aged approximately 8 months were then vaccinated subcutaneously with Cop-1 (n=6) twice during the first week and once a week thereafter. Age-matched untreated Tg-AD mice (n=7) and non-Tg littermates (n=6) served, respectively, as untreated-Tg and wild-type controls. Seven weeks after the first Cop-1 injection all the mice were euthanized and analyzed. […]

[4] = system: Tg-AD mice (APPK595N, M596L+PS1ΔE9); assay: Morris water maze (MWM) spatial learning/memory in Cop-1-vaccinated Tg-AD mice; assay type: in vivo, mouse; conditions: acquisition and reversal tasks (FIGS. 7A-7B)
Description: as §1
Spatial learning/memory was assessed by performance on a hippocampus-dependent visuo-spatial learning task in the Morris water maze (MWM) and carried out as described (Lichtenwalner et al., 2001).
MWM behavior scores were analyzed using […]. Treatment group and trial block were used as sources of variation to evaluate the significance of differences between mean scores during acquisition trial blocks in the MWM.
Two weeks before the end of the experiment, all mice were tested in a Morris water maze (MWM) for cognitive activity, as reflected by their performance of a hippocampus-dependent spatial learning/memory task. […] Differences in cognitive performance were manifested in both the acquisition (FIG. 7A) and the reversal tasks (FIG. 7B).

[5] = vaccinated Tg-AD mice (FIG. 2D)

For glatiramer acetate [Cop-1], the “outcome of weekly administration of adjuvant-free agent” value ([1]; model of chronically elevated intraocular pressure (Bakalash et al., 2005)) is given as “neuroprotection”, the RGC loss ([1]; rat model of chronically high intraocular pressure, vaccination) is given as “significantly reduces RGC loss” and the “newly formed mature neurons (BrdU+/NeuN+) in dentate gyrus” value ([2]; compared to non-Tg littermates (FIG. 6B)) is given as “similar”. For the same substance, the “pre-mature neurons (DCX+ cells) in dentate gyri” value ([2]; relative to non-Tg littermates (FIG. 6C)) was “slightly but significantly more”, the “proliferating cells (BrdU+) in dentate gyrus” value ([2]; vs untreated-Tg counterparts (FIG. 6A)) was “significantly more” and the “Aβ plaques in brain cryosections stained for human Aβ” value ([3]; s.c. vaccination, seven weeks after first injection, vs untreated Tg-AD mice (FIG. 2A)) was “very few”. The “MHC-II expression by microglia adjacent to residual Aβ plaques” value [3, 5] was “most of the microglia adjacent to residual Aβ plaques expressed MHC-II”, the “TNF-α expression by microglia adjacent to residual Aβ plaques” value [3, 5] was “hardly any of them expressed TNF-α” and the “IGF-I expression by MHC-II+ microglia” value ([3]; vaccinated Tg-AD mice (FIG. 2F)) was “found to express IGF-I”. The “CD11b+ cells that became CD11b+/CD11c+ cells (associated with Aβ-plaque)” value ([3]; vaccinated Tg-AD mice, 25% in untreated Tg-AD mice (FIG. 3C)) was 87%, the “NeuN+ staining in hippocampal CA1 and dentate gyrus” value ([3]; vaccinated Tg-AD mouse relative to non-Tg littermate (FIG. 2A)) was “almost normal” and the “area occupied by the plaques (Aβ-immunoreactivity)” value ([3]; vs age-matched untreated Tg-AD mice (FIG. 2J)) was “significantly smaller”. The “total number of Aβ-plaques (30-μm hippocampal slice)” value ([3]; vs untreated Tg-AD mice (FIG. 2I)) was “significantly fewer plaques”, the “CD11b+ microglia in hippocampus” value ([3]; vs untreated Tg-AD mice (FIG. 2K)) was “significantly fewer” and the “T cells (CD3+) associated with Aβ-plaque” value ([3]; vs untreated Tg-AD mice (FIG. 2L)) was “significantly more”. For the same substance, the “number of CD11b+ cells associated with Aβ-plaque” value ([3]; vs untreated Tg-AD mice (FIG. 3B)) was “significantly decreased”, the “MWM performance vs non-Tg littermates” value [4] was “did not differ significantly” and the “MWM performance vs untreated-Tg-AD mice” value [4] was “superior to that of the untreated-Tg-AD mice”.

Source: US9089509B2, “Method of treatment of age-related macular degeneration” (YEDA RESEARCH AND DEVELOPMENT CO., LTD., priority 2006, dated 2015)
